Laboratory results: PubChem BioAssay AID1919013 (Molecular Pharmacology Branch, DTP, NCI, 2023)
“And” between values parts separate entries of the source, which are not always exact repeats. Identical values can stand only once.

System: LG0703-F498-PDC complex spheroid growth
Experiment: Anticancer human tumor LG0703-F498-PDC patient-derived lung adenocarcinoma cell line growth inhibition [AhR]
Settings: for viability, T/C: stronger effect = lower value; active means viability on the fitted dose curve at most 10% of control; inactive means the rest
In short: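 Complex tumor spheroids co-cultured with HUVEC and human MSC stroma; AhR antagonists tested in combination with standard-of-care and investigational agents. Top concentration at or near clinical Cmax (else 10 microM), half-log dilutions; growth expressed as percent test/control.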

[1] = curve of first compound, second compound 0.1 µM
[2] = curve of first compound, second compound 0.316 µM
[3] = curve of first compound, second compound 1 µM
[4] = curve of first compound, second compound 3.16 µM
[5] = curve of first compound, second compound 10 µM
[6] = second compound 0.1 µM, first compound 0.0316 µM
[7] = second compound 0.1 µM, first compound 0.1 µM
[8] = second compound 0.1 µM, first compound 0.316 µM
[9] = second compound 0.1 µM, first compound 1 µM
[10] = second compound 0.316 µM, first compound 0.0316 µM
[11] = second compound 0.316 µM, first compound 0.1 µM
[12] = second compound 0.316 µM, first compound 0.316 µM
[13] = second compound 0.316 µM, first compound 1 µM
[14] = second compound 1 µM, first compound 0.0316 µM
[15] = second compound 1 µM, first compound 0.1 µM
[16] = second compound 1 µM, first compound 0.316 µM
[17] = second compound 1 µM, first compound 1 µM
[18] = second compound 3.16 µM, first compound 0.0316 µM
[19] = second compound 3.16 µM, first compound 0.1 µM
[20] = second compound 3.16 µM, first compound 0.316 µM
[21] = second compound 3.16 µM, first compound 1 µM
[22] = second compound 10 µM, first compound 0.0316 µM
[23] = second compound 10 µM, first compound 0.1 µM
[24] = second compound 10 µM, first compound 0.316 µM
[25] = second compound 10 µM, first compound 1 µM
[26] = second compound 0.1 µM, first compound 0.000949 µM
[27] = second compound 0.1 µM, first compound 0.003 µM
[28] = second compound 0.1 µM, first compound 0.00949 µM
[29] = second compound 0.1 µM, first compound 0.03 µM
[30] = second compound 0.1 µM, first compound 0.0949 µM
[31] = second compound 0.1 µM, first compound 0.3 µM
[32] = second compound 0.316 µM, first compound 0.000949 µM
[33] = second compound 0.316 µM, first compound 0.003 µM
[34] = second compound 0.316 µM, first compound 0.00949 µM
[35] = second compound 0.316 µM, first compound 0.03 µM
[36] = second compound 0.316 µM, first compound 0.0949 µM
[37] = second compound 0.316 µM, first compound 0.3 µM
[38] = second compound 1 µM, first compound 0.000949 µM
[39] = second compound 1 µM, first compound 0.003 µM
[40] = second compound 1 µM, first compound 0.00949 µM
[41] = second compound 1 µM, first compound 0.03 µM
[42] = second compound 1 µM, first compound 0.0949 µM
[43] = second compound 1 µM, first compound 0.3 µM
[44] = second compound 3.16 µM, first compound 0.000949 µM
[45] = second compound 3.16 µM, first compound 0.003 µM
[46] = second compound 3.16 µM, first compound 0.00949 µM
[47] = second compound 3.16 µM, first compound 0.03 µM
[48] = second compound 3.16 µM, first compound 0.0949 µM
[49] = second compound 3.16 µM, first compound 0.3 µM
[50] = second compound 10 µM, first compound 0.000949 µM
[51] = second compound 10 µM, first compound 0.003 µM
[52] = second compound 10 µM, first compound 0.00949 µM
[53] = second compound 10 µM, first compound 0.03 µM
[54] = second compound 10 µM, first compound 0.0949 µM
[55] = second compound 10 µM, first compound 0.3 µM
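Further: luminescence taken as a proxy for viable cell amount.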
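Wherever viability, T/C is given: percent of DMSO vehicle control where 100% means growth equal to vehicle.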

O=C(c1cc(Cc2n[nH]c(=O)c3ccccc23)ccc1F)N1CCN(C(=O)C2CC2)CC1
inactive: viability, T/C (compound 0.0316 µM) 98.7% and 113% and 108% | viability, T/C (compound 0.1 µM) 106% and 89.2% and 102% | viability, T/C (compound 0.316 µM) 103% and 91.6% and 85.8% | viability, T/C (compound 1 µM) 99.9% and 95.1% and 114% | viability, T/C (compound 3.16 µM) 88.3% and 110% and 109% | viability, T/C (compound 10 µM) 74.2% and 90.4% and 94.5%
> 10 µM: IC50 (curve of compound)

Nc1ccn(C2OC(CO)C(O)C2(F)F)c(=O)n1 (stereo unspecified) + Cc1ccccc1N=Nc1ccc(NC(=O)c2ccnn2C)c(C)c1
inactive: viability, T/C [6] 40.4% | viability, T/C [7] 34.1% | viability, T/C [8] 31% | viability, T/C [9] 31.8% | viability, T/C (second compound 0.1 µM, first compound 3.16 µM) 31% | viability, T/C (second compound 0.1 µM, first compound 10 µM) 28.1% | viability, T/C [10] 35.8% | viability, T/C [11] 36.6% | viability, T/C [12] 30.5% | viability, T/C [13] 32% | viability, T/C (second compound 0.316 µM, first compound 3.16 µM) 31.9% | viability, T/C (second compound 0.316 µM, first compound 10 µM) 22.6% | viability, T/C [14] 37.6% | viability, T/C [15] 33.7% | viability, T/C [16] 34.1% | viability, T/C [17] 31.4% | viability, T/C (second compound 1 µM, first compound 3.16 µM) 29.5% | viability, T/C (second compound 1 µM, first compound 10 µM) 22.1% | viability, T/C [18] 30.8% | viability, T/C [19] 38.2% | viability, T/C [20] 31% | viability, T/C [21] 27.8% | viability, T/C (second compound 3.16 µM, first compound 3.16 µM) 24.6% | viability, T/C (second compound 3.16 µM, first compound 10 µM) 24.5% | viability, T/C [22] 39.3% | viability, T/C [23] 36.5% | viability, T/C [24] 37.5% | viability, T/C [25] 37.8% | viability, T/C (second compound 10 µM, first compound 3.16 µM) 36.9% | viability, T/C (second compound 10 µM, first compound 10 µM) 26.2%
< 0.0316 µM: IC50 [1] | IC50 [2] | IC50 [3] | IC50 [4] | IC50 [5]

CCc1c2c(nc3ccc(O)cc13)-c1cc3c(c(=O)n1C2)COC(=O)[C@]3(O)CC + CC(CO)NC(=O)c1cc(-c2ccc(Cl)cc2)nn(-c2cnn(C)c2)c1=O
0.0283 µM: IC50 [3]
0.0198 µM: IC50 [4]
0.0244 µM: IC50 [2]
0.0157 µM: IC50 [5]
0.0474 µM: IC50 [1]
inactive: viability, T/C [26] 96.2% | viability, T/C [27] 84.6% | viability, T/C [28] 69.7% | viability, T/C [29] 54% | viability, T/C [30] 44% | viability, T/C [31] 26.3% | viability, T/C [32] 82.8% | viability, T/C [33] 94.1% | viability, T/C [34] 62.5% | viability, T/C [35] 46.9% | viability, T/C [36] 36.9% | viability, T/C [37] 24.3% | viability, T/C [38] 79% | viability, T/C [39] 75.6% | viability, T/C [40] 67.8% | viability, T/C [41] 48.9% | viability, T/C [42] 32.6% | viability, T/C [43] 26% | viability, T/C [44] 72.7% | viability, T/C [45] 73.2% | viability, T/C [46] 58.5% | viability, T/C [47] 45.6% | viability, T/C [48] 27.8% | viability, T/C [49] 22.5% | viability, T/C [50] 72% | viability, T/C [51] 74% | viability, T/C [52] 56.5% | viability, T/C [53] 40.5% | viability, T/C [54] 26.4% | viability, T/C [55] 24.5%

Nc1ncn(C2CC(O)C(CO)S2)c(=O)n1 (stereo unspecified) + Cc1ccccc1N=Nc1ccc(NC(=O)c2ccnn2C)c(C)c1
> 0.3 µM: IC50 [1] | IC50 [2] | IC50 [3] | IC50 [4] | IC50 [5]
inactive: viability, T/C [26] 103% | viability, T/C [27] 105% | viability, T/C [28] 94.5% | viability, T/C [29] 91.5% | viability, T/C [30] 94.8% | viability, T/C [31] 97.2% | viability, T/C [32] 102% | viability, T/C [33] 93.9% | viability, T/C [34] 92.7% | viability, T/C [35] 93.9% | viability, T/C [36] 101% | viability, T/C [37] 111% | viability, T/C [38] 99.3% | viability, T/C [39] 89.3% | viability, T/C [40] 80.5% | viability, T/C [41] 98.7% | viability, T/C [42] 88% | viability, T/C [43] 82.5% | viability, T/C [44] 82.5% | viability, T/C [45] 85.7% | viability, T/C [46] 86.6% | viability, T/C [47] 76.1% | viability, T/C [48] 78.6% | viability, T/C [49] 103% | viability, T/C [50] 87% | viability, T/C [51] 86.8% | viability, T/C [52] 99% | viability, T/C [53] 77.4% | viability, T/C [54] 85% | viability, T/C [55] 96.9%

CC1COCCN1c1cc(-c2ccnn2C)c2ccnc(-c3ccn[nH]3)c2n1 (stereo unspecified) + Cc1cncc(-c2nc(NCCc3c[nH]c4ccccc34)c3ncn(C(C)C)c3n2)c1
0.468 µM: IC50 [3]
< 0.00316 µM: IC50 [4] | IC50 [5]
inactive: viability, T/C (second compound 0.1 µM, first compound 0.00316 µM) 104% | viability, T/C (second compound 0.1 µM, first compound 0.01 µM) 103% | viability, T/C [6] 112% | viability, T/C [7] 82.3% | viability, T/C [8] 64.6% | viability, T/C [9] 40.8% | viability, T/C (second compound 0.316 µM, first compound 0.00316 µM) 111% | viability, T/C (second compound 0.316 µM, first compound 0.01 µM) 120% | viability, T/C [10] 102% | viability, T/C [11] 76.4% | viability, T/C [12] 47.5% | viability, T/C [13] 34.3% | viability, T/C (second compound 1 µM, first compound 0.00316 µM) 119% | viability, T/C (second compound 1 µM, first compound 0.01 µM) 112% | viability, T/C [14] 111% | viability, T/C [15] 83.2% | viability, T/C [16] 58.9% | viability, T/C [17] 35.5% | viability, T/C (second compound 3.16 µM, first compound 0.00316 µM) 38% | viability, T/C (second compound 3.16 µM, first compound 0.01 µM) 34.6% | viability, T/C [18] 33.2% | viability, T/C [19] 27.5% | viability, T/C [20] 18.7% | viability, T/C [21] 15.7%
0.279 µM: IC50 [2]
active: viability, T/C (second compound 10 µM, first compound 0.00316 µM) 1.11% | viability, T/C (second compound 10 µM, first compound 0.01 µM) 1.21% | viability, T/C [22] 1.42% | viability, T/C [23] 1.71% | viability, T/C [24] 0.8% | viability, T/C [25] 2.39%
0.621 µM: IC50 [1]

COc1ccc([C@@H](O)c2cc(-c3ncnc4cc(N5CCOCC5)ccc34)c(F)cc2Cl)nn1
inactive: viability, T/C (compound 0.0316 µM) 97% and 89.7% and 103% | viability, T/C (compound 0.1 µM) 94.4% and 103% and 102% | viability, T/C (compound 0.316 µM) 94.6% and 103% and 100% | viability, T/C (compound 1 µM) 93.6% and 93.9% and 90% | viability, T/C (compound 3.16 µM) 75.6% and 76.3% and 67.8% | viability, T/C (compound 10 µM) 26.7% and 26.9% and 26.5%
5.77 µM and 5.83 µM and 5.19 µM: IC50 (curve of compound)

O=C(C=Cc1cccc(S(=O)(=O)Nc2ccccc2)c1)NO
0.966 µM and 0.835 µM and 0.827 µM: IC50 (curve of compound)
inactive: viability, T/C (compound 0.0316 µM) 101% and 111% and 110% | viability, T/C (compound 0.1 µM) 111% and 119% and 116% | viability, T/C (compound 0.316 µM) 94% and 91.7% and 82.7% | viability, T/C (compound 1 µM) 48.1% and 42% and 45.8% | viability, T/C (compound 3.16 µM) 12% and 11.7% and 7.36%
active: viability, T/C (compound 10 µM) 1.95% and 2.42% and 1.39%
